Tests used:
[1] = logP by HPLC on reversed-phase column (EEC Directive 79/831 Annex V.A8); format: physicochemical; settings: reversed-phase C18 HPLC column, 43° C., acidic range pH 2.7 (0.1% formic acid/acetonitrile), read-out: Log P
Method: The logP values reported in the preparation examples and tables above are determined in accordance with EEC Directive 79/831 Annex V.A8 by means of HPLC (High Performance Liquid Chromatography) on a reversed-phase column (C18). Temperature: 43° C. The determination with the LC-MS in the acidic range takes place at a pH of 2.7 using 0.1% aqueous formic acid and acetonitrile (containing 0.1% formic acid) as eluents; linear gradient from 10% acetonitrile to 95% acetonitrile. Calibration takes place using unbranched alkan-2-ones (having 3 to 16 carbon atoms) of which the logP values are known (logP values determined on the basis of the retention times, by linear interpolation between two successive alkanones).

Puccinia recondita = assay: Puccinia test (wheat)/protective; format: in vivo; settings: wheat plants, protective spray, application rate 1500 ppm, evaluation 7-9 days after inoculation
Source text: Puccinia Test (Wheat)/Protective
• Solvent: 49 parts by weight of N,N-dimethylformamide • Emulsifier: 1 part by weight of alkylaryl polyglycol ether
An appropriate preparation of active compound is produced by mixing 1 part by weight of active compound with the stated amounts of solvent and emulsifier and diluting the concentrate with water to the desired concentration. To test for protective activity, young wheat plants are sprayed with the preparation of active compound at the stated application rate. A day after the treatment, the plants are inoculated with a spore suspension of Puccinia recondita and then stand for 48 hours at 100% relative humidity and 22° C. Subsequently the plants stand at 80% relative humidity and a temperature of 20° C. After 7-9 days following inoculation, evaluation takes place. Here, 0% denotes an efficacy which corresponds to that of the control, whereas an efficacy of 100% means that no infestation is observed.

## CC(C)(C)n1ncc2c(c1=O)Sc1c(cnn(C(C)(C)C)c1=O)S2 [Compound 7, 2,8-di-tert-butyl[1,4]dithilino[2,3-d:5,6-d′]dipyridazine-1,9(2H,8H)-dione]
[1]
  chromatographic logP: 4.6
Puccinia recondita
  Efficacy in %: 70%

— patent US8916703B2, “Dithiinopyridazinone derivates” (Bayer Intellectual Property GmbH, priority 2010, dated 2014)
